Details: Fluid (supercritical or subcritical phases), Coaxial cylinder method

CCCCCC [hexane]
thermal conductivity [W/m/K]
Details | 525.42 K | 553 K
1000 kPa | – | 0.04354
1120 kPa | – | 0.0439
1400 kPa | – | 0.04407
1500 kPa | – | 0.04431
1600 kPa | – | 0.04443
1700 kPa | – | 0.04455
1800 kPa | – | 0.0448
1900 kPa | – | 0.04493
2000 kPa | – | 0.04518
2100 kPa | – | 0.04543
2200 kPa | – | 0.04556
2300 kPa | – | 0.04582
2400 kPa | – | 0.04608
2500 kPa | 0.04372 | 0.04635
2600 kPa | – | 0.04661
2700 kPa | – | 0.04688
2740 kPa | 0.04444 | –
2800 kPa | – | 0.04716
2850 kPa | 0.04444 | –
2900 kPa | – | 0.04743
3000 kPa | 0.04701 | 0.04743
3050 kPa | 0.04756 | –
3100 kPa | 0.04855 | 0.04814
3150 kPa | 0.04855 | –
3200 kPa | 0.04958 | 0.04857
3250 kPa | 0.05034 | –
3300 kPa | 0.05065 | 0.04897
3350 kPa | 0.05177 | –
3400 kPa | 0.05311 | 0.04942
3450 kPa | 0.0538 | –
3500 kPa | 0.05526 | 0.05003
3550 kPa | 0.05659 | –
3600 kPa | 0.05777 | 0.0505
3650 kPa | 0.059 | –
3700 kPa | 0.0603 | 0.05127
3750 kPa | 0.06164 | –
3800 kPa | 0.06281 | 0.05191
3850 kPa | 0.06378 | –
3900 kPa | 0.06477 | 0.05255
4000 kPa | 0.06632 | 0.05325
4100 kPa | 0.06685 | 0.05395
4200 kPa | 0.06685 | 0.05468
4268 kPa | – | 0.05523
4300 kPa | 0.06685 | –
4390 kPa | – | 0.05618
4400 kPa | 0.06684 | –
4500 kPa | 0.06684 | –
4600 kPa | 0.06684 | –
4700 kPa | 0.06683 | 0.0589
4800 kPa | 0.06683 | 0.05987
4900 kPa | 0.06848 | 0.06075
5000 kPa | 0.06848 | 0.06166
5100 kPa | 0.06848 | –
5200 kPa | 0.06848 | –
5300 kPa | 0.07141 | 0.06418
5400 kPa | 0.07172 | –
5500 kPa | 0.07172 | 0.06559
5600 kPa | 0.07172 | –
5700 kPa | 0.07203 | –
5800 kPa | 0.07203 | 0.06746
5900 kPa | 0.07218 | –
6000 kPa | 0.07233 | 0.06843
6100 kPa | 0.07249 | –
6200 kPa | 0.07249 | –
6300 kPa | 0.07265 | 0.06974
6400 kPa | 0.07281 | –
6500 kPa | 0.0728 | 0.07019
6600 kPa | 0.07296 | –
6700 kPa | 0.07312 | –
6800 kPa | 0.07328 | 0.07109
6900 kPa | 0.07348 | –
7000 kPa | 0.07361 | 0.0717
7100 kPa | 0.07377 | –
7200 kPa | 0.07393 | 0.07202
7317 kPa | 0.0741 | –
7328 kPa | 0.07412 | –
7405 kPa | 0.07412 | –
7500 kPa | 0.07428 | 0.07265
7600 kPa | 0.07445 | –
7700 kPa | 0.07462 | –
7800 kPa | 0.07478 | 0.07329
7900 kPa | 0.07482 | –
8000 kPa | 0.07495 | 0.07361
8100 kPa | 0.07512 | –
8200 kPa | 0.07529 | –
8300 kPa | 0.07546 | 0.07427
8400 kPa | 0.07546 | –
8500 kPa | 0.07546 | 0.07427
8600 kPa | 0.07563 | –
8700 kPa | 0.07583 | –
8800 kPa | 0.07597 | 0.07545
8900 kPa | 0.07614 | –
9000 kPa | 0.07632 | 0.07545
9100 kPa | 0.07632 | –
9200 kPa | 0.07649 | –
9250 kPa | – | 0.07562
9300 kPa | 0.07667 | –
9400 kPa | 0.07674 | –
9500 kPa | 0.07684 | 0.07582
9600 kPa | 0.07701 | –
9700 kPa | 0.07712 | –
9800 kPa | 0.07726 | 0.07617
9900 kPa | 0.07737 | –
10000 kPa | – | 0.07635
10150 kPa | 0.07772 | –
10200 kPa | 0.07779 | –
10300 kPa | 0.07793 | 0.07652
10400 kPa | 0.07804 | –
10500 kPa | 0.07815 | 0.07688
10600 kPa | 0.07833 | –
10800 kPa | 0.07855 | 0.07716
11000 kPa | – | 0.0773
11500 kPa | 0.07941 | 0.07777
11600 kPa | 0.07956 | –
11800 kPa | 0.07975 | –
12000 kPa | 0.07994 | 0.07832
12300 kPa | 0.08032 | 0.07869
12500 kPa | 0.08048 | –
12870 kPa | – | 0.07914
13500 kPa | – | 0.07983
14000 kPa | – | 0.08021
14500 kPa | – | 0.08068
15000 kPa | – | 0.08119
